Assay results reported in US20120231141A1, “BITTERNESS-IMPROVING AGENT FOR BITTER FOOD AND DRINK AND ASTRINGENCY-IMPROVING AGENT FOR ASTRINGENT FOOD AND DRINK” (priority 2009, published 2012).

How the values were obtained:
[1] = Bitterness evaluation of grapefruit juice (flavor comparison by 10 panelists); assay type: in vivo; conditions: for A: the number of panelists who felt no difference from 3-n-butylphthalide-free / B: the number of panelists who felt some reduction in bitterness / Flavor judgment: the number of panelists who judged it as most proper bitterness / N: the number of panelists who hardly felt bitterness: 10 panelists
Method: 3-n-Butylphthalide was added as a bitterness-improving agent (masking agent for bitterness) of the present invention to commercially available grapefruit juice at the concentrations shown in the following Table 2 to obtain grapefruit juice.

[2] = Bitterness evaluation of green tea drink (flavor comparison by 10 panelists); assay type: in vivo; conditions: for A: the number of panelists who felt no difference from sedanolide-free / B: the number of panelists who fell some reduction in bitterness / Flavor judgment: the number of panelists who judged it as most proper bitterness / N: the number of panelists who hardly felt bitterness: 10 panelists
Method: Five thousand grams of hot water (containing 0.03% of sodium ascorbate) of 60° C. was added to 100 g of Chinese green tea (second picking tea) produced by Josei (heat treatment by steaming), followed by extraction for 5 min while sometimes stirring. Subsequently, solid-liquid separation with flannel filter was performed to obtain 4500 g of an extract (Bx 0.6°). To the extract, 0.04 g of tannase (Kikkoman Corporation: 5000 U/g) was added. The resulting mixture was left to stand at 40° C. for 1 hour to decompose the gallate-type catechin to non-gallate-type catechin (gallate-type catechin has strong astringency, and non-gallate-type catechin has strong bitterness), followed by heating at 90° C. for 1 min to inactivate the enzyme. After cooling to 20° C., the extract was adjusted to Bx 0.5° with deionized water to obtain green tea extract having strong bitterness. Sedanolide was added as a taste-improving agent (masking agent for bitterness) of the present invention to the resulting extract at the concentrations shown in the following Table 3 to obtain green tea drinks.

[3] = 3-n-butylphthalide 0.01 ppb in grapefruit juice
[4] = 3-n-butylphthalide 0.01 ppm in grapefruit juice
[5] = 3-n-butylphthalide 0.1 ppb in grapefruit juice
[6] = 3-n-butylphthalide 0.1 ppm in grapefruit juice
[7] = 3-n-butylphthalide 1 ppb in grapefruit juice
[8] = 3-n-butylphthalide 1 ppm in grapefruit juice
[9] = 3-n-butylphthalide 1 ppt in grapefruit juice
[10] = 3-n-butylphthalide 10 ppm in grapefruit juice
[11] = sedanolide 0.01 ppb in green tea drink having strong bitterness
[12] = sedanolide 0.01 ppm in green tea drink having strong bitterness
[13] = sedanolide 0.1 ppb in green tea drink having strong bitterness
[14] = sedanolide 0.1 ppm in green tea drink having strong bitterness
[15] = sedanolide 1 ppb in green tea drink having strong bitterness
[16] = sedanolide 1 ppm in green tea drink having strong bitterness
[17] = sedanolide 1 ppt in green tea drink having strong bitterness
[18] = sedanolide 10 ppm in green tea drink having strong bitterness

CCCCC1OC(=O)c2ccccc21 (stereo not shown) [3-n-butylphthalide]
A: the number of panelists who felt no difference from 3-n-butylphthalide-free [1, 3]: 7
B: the number of panelists who felt some reduction in bitterness [1, 3]: 2
Flavor judgment: the number of panelists who judged it as most proper bitterness [1, 3]: 0
N: the number of panelists who hardly felt bitterness [1, 3]: 1
reduction in bitterness at low concentration ([1]; 3-n-butylphthalide 0.01 ppb, grapefruit juice): some panelists felt some reduction in bitterness
A: the number of panelists who felt no difference from 3-n-butylphthalide-free [1, 4]: 2
B: the number of panelists who felt some reduction in bitterness [1, 4]: 6
Flavor judgment: the number of panelists who judged it as most proper bitterness [1, 4]: 2
N: the number of panelists who hardly felt bitterness [1, 4]: 2
A: the number of panelists who felt no difference from 3-n-butylphthalide-free [1, 5]: 4
B: the number of panelists who felt some reduction in bitterness [1, 5]: 6
Flavor judgment: the number of panelists who judged it as most proper bitterness [1, 5]: 0
N: the number of panelists who hardly felt bitterness [1, 5]: 0
A: the number of panelists who felt no difference from 3-n-butylphthalide-free [1, 6]: 0
B: the number of panelists who felt some reduction in bitterness [1, 6]: 4
Flavor judgment: the number of panelists who judged it as most proper bitterness [1, 6]: 5
N: the number of panelists who hardly felt bitterness [1, 6]: 6
A: the number of panelists who felt no difference from 3-n-butylphthalide-free [1, 7]: 3
B: the number of panelists who felt some reduction in bitterness [1, 7]: 7
Flavor judgment: the number of panelists who judged it as most proper bitterness [1, 7]: 0
N: the number of panelists who hardly felt bitterness [1, 7]: 0
A: the number of panelists who felt no difference from 3-n-butylphthalide-free [1, 8]: 0
B: the number of panelists who felt some reduction in bitterness [1, 8]: 4
Flavor judgment: the number of panelists who judged it as most proper bitterness [1, 8]: 3
N: the number of panelists who hardly felt bitterness [1, 8]: 6
A: the number of panelists who felt no difference from 3-n-butylphthalide-free [1, 9]: 9
B: the number of panelists who felt some reduction in bitterness [1, 9]: 1
Flavor judgment: the number of panelists who judged it as most proper bitterness [1, 9]: 0
N: the number of panelists who hardly felt bitterness [1, 9]: 0
A: the number of panelists who felt no difference from 3-n-butylphthalide-free [1, 10]: 0
B: the number of panelists who felt some reduction in bitterness [1, 10]: 3
Flavor judgment: the number of panelists who judged it as most proper bitterness [1, 10]: 0
N: the number of panelists who hardly felt bitterness [1, 10]: 7
overall result of bitterness masking ([1]; amount of 3-n-butylphthalide about 0.1 ppb to 1 ppm, grapefruit juice): particularly good results were obtained
bitterness of grapefruit juice (judgment) ([1]; grapefruit juice containing 0.01 ppb to 10 ppm of 3-n-butylphthalide): masked

CCCCC1OC(=O)C2=CCCCC21 (stereo not shown) [sedanolide]
overall result of bitterness masking ([2]; amount of sedanolide about 0.1 ppb to 1 ppm, green tea drink): particularly good results were obtained
bitterness of green tea drink (judgment) ([2]; green tea drink containing 0.01 ppb to 10 ppm of sedanolide): masked
A: the number of panelists who felt no difference from sedanolide-free [2, 11]: 8
B: the number of panelists who fell some reduction in bitterness [2, 11]: 2
Flavor judgment: the number of panelists who judged it as most proper bitterness [2, 11]: 0
N: the number of panelists who hardly felt bitterness [2, 11]: 0
reduction in bitterness at low concentration ([2]; sedanolide 0.01 ppb, green tea drink): some panelists felt some reduction in bitterness
A: the number of panelists who felt no difference from sedanolide-free [2, 12]: 2
B: the number of panelists who fell some reduction in bitterness [2, 12]: 6
Flavor judgment: the number of panelists who judged it as most proper bitterness [2, 12]: 2
N: the number of panelists who hardly felt bitterness [2, 12]: 2
A: the number of panelists who felt no difference from sedanolide-free [2, 13]: 4
B: the number of panelists who fell some reduction in bitterness [2, 13]: 5
Flavor judgment: the number of panelists who judged it as most proper bitterness [2, 13]: 0
N: the number of panelists who hardly felt bitterness [2, 13]: 1
A: the number of panelists who felt no difference from sedanolide-free [2, 14]: 0
B: the number of panelists who fell some reduction in bitterness [2, 14]: 5
Flavor judgment: the number of panelists who judged it as most proper bitterness [2, 14]: 5
N: the number of panelists who hardly felt bitterness [2, 14]: 5
A: the number of panelists who felt no difference from sedanolide-free [2, 15]: 3
B: the number of panelists who fell some reduction in bitterness [2, 15]: 6
Flavor judgment: the number of panelists who judged it as most proper bitterness [2, 15]: 0
N: the number of panelists who hardly felt bitterness [2, 15]: 1
A: the number of panelists who felt no difference from sedanolide-free [2, 16]: 0
B: the number of panelists who fell some reduction in bitterness [2, 16]: 5
Flavor judgment: the number of panelists who judged it as most proper bitterness [2, 16]: 3
N: the number of panelists who hardly felt bitterness [2, 16]: 5
A: the number of panelists who felt no difference from sedanolide-free [2, 17]: 10
B: the number of panelists who fell some reduction in bitterness [2, 17]: 0
Flavor judgment: the number of panelists who judged it as most proper bitterness [2, 17]: 0
N: the number of panelists who hardly felt bitterness [2, 17]: 0
A: the number of panelists who felt no difference from sedanolide-free [2, 18]: 0
B: the number of panelists who fell some reduction in bitterness [2, 18]: 5
Flavor judgment: the number of panelists who judged it as most proper bitterness [2, 18]: 0
N: the number of panelists who hardly felt bitterness [2, 18]: 5
